≈ marks a conversion by molar mass, not a printed value. Like-named read-outs stand apart in the source and are kept apart here.
Assays:
Ps. cepacia 23 = experiment: in vitro antibacterial activity, agar plate dilution method (MIC); format: cell-based, Pseudomonas cepacia; conditions: for MIC: read-out: Minimum Inhibitory Concentration (MIC)
Description: (§1) The in vitro antibacterial activities of the compounds of the present invention against various microorganisms, were measured by the following agar plate dilution method. One platinum loopfull of each test microorganism incubated overnight in Mueller Hinton broth, was inoculated to Mueller Hinton agar (inoculum size: 10^6 CFU/ml). Such culture media containing various antibiotics in various concentrations were prepared. After incubation at 37° C. for 16 hours, the minimum inhibitory concentrations (MIC: μg/ml) were measured.

E. coli CSH2 (RK1) = experiment: microbe, parasite or virus in culture; format: cell-based; conditions: 10^6 CFU/ml; for Minimum Inhibitory Concentration (MIC): *E. coli CSH2 (RK1), lactamase-producing strain; for MIC: Escherichia coli, 16 h, read-out: Minimum Inhibitory Concentration (MIC), *E. coli CSH2 (RK1), lactamase-producing strain
Description: as §1

E. coli CSH(RE45) = experiment: microbe, parasite or virus in culture; format: cell-based; conditions: 10^6 CFU/ml; for Minimum Inhibitory Concentration (MIC): *E. coli CSH(RE45), lactamase-producing strain; for MIC: Escherichia coli, 16 h, read-out: Minimum Inhibitory Concentration (MIC), *E. coli CSH(RE45), lactamase-producing strain
Description: as §1

S. marcescens IAM 1184 = experiment: in vitro antibacterial activity, agar plate dilution method (MIC); format: cell-based; conditions: for MIC: Serratia marcescens, IAM1184, 16 h, read-out: Minimum Inhibitory Concentration (MIC)
Description: as §1

P. vulgaris No. 33 = experiment: as above; format: cell-based; conditions: 10^6 CFU/ml; for Minimum Inhibitory Concentration (MIC): *P. vulgaris No. 33, lactamase-producing strain; for MIC: Proteus vulgaris, NO.33, 16 h, read-out: Minimum Inhibitory Concentration (MIC), *P. vulgaris No. 33, lactamase-producing strain
Description: as §1

E. cloacae Nek 39 = experiment: as above; format: cell-based; conditions: 10^6 CFU/ml; for Minimum Inhibitory Concentration (MIC): *E. cloacae Nek 39, lactamase-producing strain; for MIC: Enterobacter cloacae, NEK39, 16 h, read-out: Minimum Inhibitory Concentration (MIC), *E. cloacae Nek 39, lactamase-producing strain
Description: as §1

E. cloacae 963 = experiment: as above; format: cell-based; conditions: 10^6 CFU/ml
Description: as §1

M. morganii GN5407 = experiment: as above; format: cell-based; conditions: 10^6 CFU/ml; for Minimum Inhibitory Concentration (MIC): *M. morganii GN5407, lactamase-producing strain; for MIC: Morganella morganii, GN5407, 16 h, read-out: Minimum Inhibitory Concentration (MIC), *M. morganii GN5407, lactamase-producing strain
Description: as §1

E. coli GN5482 = experiment: as above; format: cell-based; conditions: 10^6 CFU/ml; for Minimum Inhibitory Concentration (MIC): *E. coli GN5482, lactamase-producing strain; for MIC: Escherichia coli, GN5482, 16 h, read-out: Minimum Inhibitory Concentration (MIC), *E. coli GN5482, lactamase-producing strain
Description: as §1

E. coli NIHJ JC2 = experiment: as above; format: cell-based; conditions: for MIC: Escherichia coli, NIHJJC2, 16 h, read-out: Minimum Inhibitory Concentration (MIC), E. coli NIHJ JC2, 10^6 CFU/ml, 37° C.
Description: as §1

K. oxytoca GN10650 = experiment: as above; format: cell-based; conditions: 10^6 CFU/ml; for Minimum Inhibitory Concentration (MIC): *K. oxytoca GN10650, lactamase-producing strain; for MIC: Klebsiella oxytoca, GN10650, 16 h, read-out: Minimum Inhibitory Concentration (MIC), *K. oxytoca GN10650, lactamase-producing strain
Description: as §1

K. pneumoniae PCI-602 = experiment: as above; format: cell-based; conditions: 10^6 CFU/ml; for MIC: Klebsiella pneumoniae, PCI602, 16 h
Description: as §1

K. pneumoniae No. 42 = experiment: as above; format: cell-based; conditions: 10^6 CFU/ml; for Minimum Inhibitory Concentration (MIC): *K. pneumoniae No. 42, lactamase-producing strain; for MIC: Klebsiella pneumoniae, NO.42, 16 h, read-out: Minimum Inhibitory Concentration (MIC), *K. pneumoniae No. 42, lactamase-producing strain
Description: as §1

P. vulgaris HX-19 = experiment: as above; format: cell-based; conditions: P. vulgaris HX-19, 10^6 CFU/ml; for MIC: Proteus vulgaris, HX19, 16 h, read-out: Minimum Inhibitory Concentration (MIC)
Description: as §1

S. aureus 209P NIHJ-JC1 = experiment: as above; format: cell-based; conditions: for Minimum Inhibitory Concentration (MIC): S. aureus 209P NIHJ-JC1; for MIC: Staphylococcus aureus, 16 h
Description: as §1

S. marcescens No. 16-2 = experiment: as above; format: cell-based; conditions: for MIC: Serratia marcescens, NO.162, 16 h, read-out: Minimum Inhibitory Concentration (MIC)
Description: as §1

A. calcoaceticus No. 4 = experiment: as above; format: cell-based, Acinetobacter calcoaceticus; conditions: 10^6 CFU/ml; for MIC: Acinetobacter calcoaceticus, NO.4, 16 h
Description: as §1

Ps. aeruginosa IF03445 = experiment: as above; format: cell-based, Pseudomonas aeruginosa; conditions: 10^6 CFU/ml; for MIC: Pseudomonas aeruginosa
Description: as §1

Ps. aeruginosa AKR17 = experiment: as above; format: cell-based, Pseudomonas aeruginosa; conditions: 10^6 CFU/ml; for MIC: Pseudomonas aeruginosa
Description: as §1

Ps. aeruginosa AK 109 = experiment: as above; format: cell-based, Pseudomonas aeruginosa; conditions: for MIC: Pseudomonas aeruginosa, AK109, 16 h, read-out: Minimum Inhibitory Concentration (MIC)
Description: as §1

[1] = S. marcescens IAM 1184, 10^6 CFU/ml
[2] = Ps. aeruginosa AK 109, 10^6 CFU/ml
[3] = K. pneumoniae PCI-602, read-out: Minimum Inhibitory Concentration (MIC)
[4] = Enterobacter cloacae, 963, 16 h, read-out: Minimum Inhibitory Concentration (MIC), E. cloacae 963
[5] = 16 h, Ps. aeruginosa AKR17, read-out: Minimum Inhibitory Concentration (MIC)

| SMILES | Minimum Inhibitory Concentration (MIC) (Ps. cepacia 23; Ps. cepacia 23, 10^6 CFU/ml) [µg/mL] | Minimum Inhibitory Concentration (MIC) (E. coli CSH2 (RK1)) [µg/mL] | Minimum Inhibitory Concentration (MIC) (E. coli CSH(RE45)) [µg/mL] | Minimum Inhibitory Concentration (MIC) (P. vulgaris No. 33) [µg/mL] | Minimum Inhibitory Concentration (MIC) (E. cloacae Nek 39) [µg/mL] | Minimum Inhibitory Concentration (MIC) (M. morganii GN5407) [µg/mL] | Minimum Inhibitory Concentration (MIC) (E. coli GN5482) [µg/mL] | Minimum Inhibitory Concentration (MIC) (K. oxytoca GN10650) [µg/mL] | Minimum Inhibitory Concentration (MIC) (K. pneumoniae No. 42) [µg/mL] | MIC (P. vulgaris HX-19) [µg/mL] | Minimum Inhibitory Concentration (MIC) (S. aureus 209P NIHJ-JC1; 10^6 CFU/ml, 37° C., 16 hours) [µg/mL] | Minimum Inhibitory Concentration (MIC) (A. calcoaceticus No. 4; A. calcoaceticus No. 4) [µg/mL] | Minimum Inhibitory Concentration (MIC) (Ps. aeruginosa IF03445; Ps. aeruginosa IF03445) [µg/mL] | Minimum Inhibitory Concentration (MIC) (Ps. aeruginosa AK 109; [2]) [µg/mL] | MIC (S. marcescens IAM 1184) [µg/mL] | MIC (E. coli NIHJ JC2) [µg/mL] | MIC (K. pneumoniae PCI-602; [3]) [µg/mL] | MIC (S. marcescens No. 16-2) [µg/mL] | MIC (E. coli CSH2 (RK1)) [µg/mL] | MIC (E. coli CSH(RE45)) [µg/mL] | other results |
| --- | --- | --- | --- | --- | --- | --- | --- | --- | --- | --- | --- | --- | --- | --- | --- | --- | --- | --- | --- | --- | --- |
| Nc1nc(C(=NOC(C(=O)O)c2ccc(O)c(O)c2)C(=O)NC2C(=O)N3C(C(=O)O)=C(CSc4nnc(-c5ccc(O)c(O)c5)s4)CSC23)cs1 (single isomer, unassigned) [Example 38 DB, disodium 7β-{2-(2-aminothiazol-4-yl)-2-(α-carboxylate-3,4-dihydroxybenzyloxyimino)acetamido]-3-[5-(3,4-dihydroxyphenyl)-1,3,4-thiadiazol-2-yl]thiomethyl-3-cephem-4-carboxylate] | < 0.006 | 0.025 | 0.0125 | 0.1 | 0.39 | 0.2 | 0.78 | 0.1 | 0.1 | 0.025 | 1.56 | 0.05 | 3.12 | 0.78 | – | – | – | – | – | – | Minimum Inhibitory Concentration (MIC) (S. marcescens IAM 1184; [1]): 0.1 µg/mL; MIC (E. cloacae 963; Enterobacter cloacae, 16 h, E. cloacae 963, read-out: Minimum Inhibitory Concentration (MIC)): 0.2 µg/mL; Minimum Inhibitory Concentration (MIC) (E. coli NIHJ JC2; E. coli NIHJ JC2, 10^6 CFU/ml, 37° C., 16 hours): 0.78 µg/mL; Minimum Inhibitory Concentration (MIC) (K. pneumoniae PCI-602; K. pneumoniae PCI-602): < 0.006 µg/mL; Minimum Inhibitory Concentration (MIC) (S. marcescens No. 16-2; *S. marcescens No. 16-2, lactamase-producing strain, 10^6 CFU/ml): 6.25 µg/mL; MIC (Ps. aeruginosa AKR17; AKR17, 16 h, read-out: Minimum Inhibitory Concentration (MIC), Ps. aeruginosa AKR17): 1.56 µg/mL |
| CC(=O)Oc1ccc(-c2nc(SCC3=C(C(=O)O)N4C(=O)C(NC(=O)C(=NOC(C(=O)O)c5ccccc5)c5csc(N)n5)C4SC3)sc2CC(=O)O)cc1OC(C)=O (single isomer, unassigned) [Example 61 DB] | < 0.006 | 0.05 | 12.5 | 0.2 | 0.39 | 0.39 | 1.56 | 0.2 | 0.39 | – | 50 | 0.39 | 3.12 | 1.56 | 0.39 (≈ 0.442 µM) | 3.12 (≈ 3.53 µM) | 0.025 (≈ 0.0283 µM) | 3.12 (≈ 3.53 µM) | – | – | Minimum Inhibitory Concentration (MIC) (E. cloacae 963; E. cloacae 963): 0.78 µg/mL; Minimum Inhibitory Concentration (MIC) (P. vulgaris HX-19): 0.05 µg/mL; Minimum Inhibitory Concentration (MIC) (Ps. aeruginosa AKR17; Ps. aeruginosa AKR17): 0.78 µg/mL |
| CC(C)(O/N=C(\C(=O)N[C@@H]1C(=O)N2C(C(=O)O)=C(CSc3nc(-c4ccc(O)cc4)cs3)CS[C@H]12)c1csc(N)n1)C(=O)O [compound 12, disodium 7β-[2-(2-aminothiazol-4-yl)-2-(1-carboxylate-1-methylethoxyimino)acetamido]-3-[4-(4-hydroxyphenyl)thiazol-2-yl]thiomethyl-3-cephem-4-carboxylate, reference compound] | – | – | – | – | – | – | – | – | – | < 0.006 | – | – | – | – | 0.78 | 3.12 | 0.05 | 12.5 | 1.56 | 1.56 | MIC (Ps. cepacia 23; Burkholderia cepacia, 23, 16 h): 3.12 µg/mL; MIC (P. vulgaris No. 33): 0.39 µg/mL; MIC (E. cloacae Nek 39): 12.5 µg/mL; MIC (E. cloacae 963; [4]): 3.12 µg/mL; MIC (M. morganii GN5407): 1.56 µg/mL; MIC (E. coli GN5482): 1.56 µg/mL; MIC (K. oxytoca GN10650): 1.56 µg/mL; MIC (K. pneumoniae No. 42): 3.12 µg/mL; MIC (S. aureus 209P NIHJ-JC1; read-out: Minimum Inhibitory Concentration (MIC)): 3.12 µg/mL; MIC (A. calcoaceticus No. 4; A. calcoaceticus No. 4, read-out: Minimum Inhibitory Concentration (MIC)): 100 µg/mL; MIC (Ps. aeruginosa IF03445; 16 h, Ps. aeruginosa IF03445, read-out: Minimum Inhibitory Concentration (MIC)): 50 µg/mL; MIC (Ps. aeruginosa AKR17; [5]): > 100 µg/mL; MIC (Ps. aeruginosa AK 109; [2]): 25 µg/mL |
| CON=C(C(=O)NC1C(=O)N2C(C(=O)O)=C(CSc3nc(-c4ccc(O)c(O)c4)cs3)CSC12)c1csc(N)n1 (stereo not drawn) [compound 39, sodium 7β-[2-(2-aminothiazol-4-yl)-2-methoxviminoacetamido]-3-[4-(3,4-dihydroxyphenvl)-thiazol-2-yl]thiomethyl-3-cephem-4-carboxylate] | – | – | – | – | – | – | – | – | – | < 0.006 | – | – | – | – | – | 0.1 | – | 3.12 | 0.0125 | 0.1 | MIC (Ps. cepacia 23; Burkholderia cepacia, 16 h, Ps. cepacia 23, 10^6 CFU/ml): 0.2 µg/mL; MIC (S. marcescens IAM 1184; [1]): 0.05 µg/mL; MIC (P. vulgaris No. 33): 0.05 µg/mL; MIC (E. cloacae Nek 39): 0.39 µg/mL; MIC (E. cloacae 963; [4]): 0.025 µg/mL; MIC (M. morganii GN5407): 0.05 µg/mL; MIC (E. coli GN5482): 0.78 µg/mL; MIC (K. oxytoca GN10650): 1.56 µg/mL; MIC (K. pneumoniae PCI-602; read-out: Minimum Inhibitory Concentration (MIC), K. pneumoniae PCI-602): < 0.006 µg/mL; MIC (K. pneumoniae No. 42): 0.2 µg/mL; MIC (S. aureus 209P NIHJ-JC1; read-out: Minimum Inhibitory Concentration (MIC), S. aureus 209P NIHJ-JC1, 10^6 CFU/ml, 37° C., 16 hours): 1.56 µg/mL; MIC (A. calcoaceticus No. 4; read-out: Minimum Inhibitory Concentration (MIC), A. calcoaceticus No. 4): 0.39 µg/mL; MIC (Ps. aeruginosa IF03445; IF03445, 16 h, read-out: Minimum Inhibitory Concentration (MIC), Ps. aeruginosa IF03445): 1.56 µg/mL; MIC (Ps. aeruginosa AKR17; [5]): > 100 µg/mL; MIC (Ps. aeruginosa AK 109): 3.12 µg/mL |

Reference: patent publication US5061794A, “Cephalosporin derivatives, and antibacterial agents” (priority 1986, dated 1991)
